Measured values published in publication PMC9619225, “Novel transketolase inhibitor oroxylin A suppresses the non‐oxidative pentose phosphate pathway and hepatocellular carcinoma tumour growth in mice and patient‐derived organoids” (Clinical and Translational Medicine, 2022).

How the values were obtained:
Format in all cases: binding
Transketolase (TKT) [1] = target: T1, Transketolase (TKT) (Homo sapiens, UniProt P29401); assay: competitive displacement chromatography on TKT protein column; set-up: TKT protein immobilised on silica column
T1 sequence (P29401 1-623): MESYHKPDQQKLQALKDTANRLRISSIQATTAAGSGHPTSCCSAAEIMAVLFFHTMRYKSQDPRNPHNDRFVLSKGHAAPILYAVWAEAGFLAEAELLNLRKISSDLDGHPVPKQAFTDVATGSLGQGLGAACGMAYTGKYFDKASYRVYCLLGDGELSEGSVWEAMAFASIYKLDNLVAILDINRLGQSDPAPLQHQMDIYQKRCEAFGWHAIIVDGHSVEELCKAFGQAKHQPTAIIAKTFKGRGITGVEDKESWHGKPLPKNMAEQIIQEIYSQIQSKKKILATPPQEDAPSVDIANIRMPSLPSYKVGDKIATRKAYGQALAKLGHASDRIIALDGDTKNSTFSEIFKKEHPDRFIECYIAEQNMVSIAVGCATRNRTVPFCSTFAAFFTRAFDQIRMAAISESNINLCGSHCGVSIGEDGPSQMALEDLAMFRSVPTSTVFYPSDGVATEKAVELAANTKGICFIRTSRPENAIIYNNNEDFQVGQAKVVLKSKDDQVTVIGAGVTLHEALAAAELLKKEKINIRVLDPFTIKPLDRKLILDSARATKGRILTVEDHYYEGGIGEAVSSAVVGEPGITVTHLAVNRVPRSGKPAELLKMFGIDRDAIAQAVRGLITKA

p53 = target: T2, p53 (Homo sapiens, UniProt P04637); assay: SPR
T2 construct: gene TP53

Transketolase (TKT) [2] = target: T1, Transketolase (TKT); assay: SPR (Biacore, TKT immobilised on HisCap chip); supported by DARTS, CETSA, TKT-column displacement and enzyme inhibition ([…] at […]); set-up: Purified human TKT protein

T2 sequence (P04637 whole entry): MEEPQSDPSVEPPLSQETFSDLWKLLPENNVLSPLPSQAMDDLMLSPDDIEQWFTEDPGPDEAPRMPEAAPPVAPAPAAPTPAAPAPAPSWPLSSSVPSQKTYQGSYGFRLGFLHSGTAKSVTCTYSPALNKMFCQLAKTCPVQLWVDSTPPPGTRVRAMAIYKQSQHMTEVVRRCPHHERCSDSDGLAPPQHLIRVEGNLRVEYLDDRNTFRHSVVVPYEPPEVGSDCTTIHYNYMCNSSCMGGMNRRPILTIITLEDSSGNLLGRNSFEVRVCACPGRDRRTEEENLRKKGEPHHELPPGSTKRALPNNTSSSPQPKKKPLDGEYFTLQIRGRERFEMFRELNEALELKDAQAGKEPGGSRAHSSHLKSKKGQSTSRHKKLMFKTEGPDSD

SMILES	competitive displacement chromatography on TKT protein column (Transketolase (TKT) [1])	Kd (p53)	Kd (Transketolase (TKT) [2])
Cc1ncc(C[n+]2csc(CCO)c2C)c(O)n1 [oxythiamine]	retention time of oxythiamine was markedly decreased with the increased concentration of oroxylin A in mobile phase	–	–
COc1c(O)cc2oc(-c3ccccc3)cc(=O)c2c1O [oroxylin A]	–	70.7 µM	11.9 ± 8.4 µM
